Data as given in US12156857B2, “Composition for promoting ketone body production” (Meiji Co., Ltd., priority 2016, dated 2024).

How the values were obtained:
Format in all cases: in vivo, Male Wistar rats
[1] = tested on: ketone body production; assay: Selection of amino acid promoting ketone body production: blood β-hydroxybutyric acid after amino acid plus MCT feeding; details: rats, until 6 hours; for % ΔAUC (%): % relative value of area under the blood concentration-curve ΔAUC of β-hydroxybutyric acid, control group = 100 / % ΔCmax (%): % relative value of maximum blood concentration ΔCmax of β-hydroxybutyric acid, control group = 100: overnight fasting, amino acid 1.0 mmol/kg oral, then caprylic triglyceride (MCT) 3.0 g/kg oral, control water + MCT; for both % ΔCmax and % ΔAUC of β-hydroxybutyric acid compared with control group fed with water: amino acid 1.0 mmol/kg oral + MCT 3.0 g/kg oral
Description: (§1) In the following Examples, the blood β-hydroxybutyric acid concentration was measured with a β-hydroxybutyric acid measuring instrument for self-inspection (Precision Xceed manufactured by Abbott).
In the following Examples, the promotion of ketone body production was evaluated as follows. Specifically, blood was collected from the caudal vein of rats under fasting to measure the blood concentration (mmol/L) of β-hydroxybutyric acid (bHB) as an index of the ketone body in the blood. The measured value was defined as an initial value (0 hours). The rats were grouped into a control group and an experimental group, and fed with test samples. Thereafter, the transition of the blood bHB concentration until after 6 hours from the initial value was graphed. A reference view for determining the maximum blood concentration (Cmax) and area under the blood concentration-curve (AUC) of bHB is shown in FIG. 1A. A value obtained by subtracting the measured value at the initial value (0 hours) from the measured value at the time of each measurement was calculated, and defined as an amount of change in blood β-hydroxybutyric acid concentration (ΔbHB concentration) (FIG. 1B). Then, for the amount of change in blood β-hydroxybutyric acid concentration (ΔbHB concentration), the maximum blood concentration (ΔCmax) and area under the blood concentration-curve (ΔAUC) until after 6 hours from the initial value (0 hours) were calculated (FIG. 1B).
A % relative value (% ΔCmax (%)) of the maximum blood concentration ΔCmax of β-hydroxybutyric acid for the experimental group when the maximum blood concentration ΔCmax of β-hydroxybutyric acid for the control group was assumed to be 100 was determined according to the following calculation formula.
A % relative value (% ΔAUC (%)) of the area under the blood concentration-curve ΔAUC of blood β-hydroxybutyric acid for the experimental group when the area under the blood concentration-curve ΔAUC of blood β-hydroxybutyric acid for the control group was assumed to be 100 was determined according to the following calculation formula.
Male Wistar rats (obtained from Japan SLC, Inc.) were acclimated for one week and then used for testing. Blood was collected from the caudal vein of the rats under overnight fasting to measure the blood concentration (mmol/L) of β-hydroxybutyric acid (bHB) as an index of the ketone body in the blood. The rats were grouped (n=8 for each group) so that the averages of the body weights and the β-hydroxybutyric acid concentrations for the respective groups were as equal as possible. Then, water was orally fed in an amount of 10 mL/kg of the body weight to the control group, and aqueous solutions of various amino acids (manufactured by Wako Pure Chemical Industries, Ltd.) were orally fed in an amount of 1.0 mmol/kg of the body weight to the experimental group. Immediately after feeding of water or each of the aqueous amino acid solutions, caprylic triglyceride (manufactured by Tokyo Chemical Industry Co., Ltd.), which is medium-chain fatty acid oil and fat (MCT), was orally fed in an amount of 3.0 g/kg of the body weight to the groups. Blood was collected from the caudal vein 1, 2, 3, 4, 5, and 6 hours after feeding of MCT to measure the blood β-hydroxybutyric acid concentration.

[2] = tested on: ketone body production; assay: Effect of citrulline or leucine on ketone body production in feeding of medium-chain fatty acid oil and fat; details: rats, four-hour fasting; amino acid 1.5 mmol/kg oral + caprylic triglyceride (MCT) 4.5 g/kg oral; until 6 hours
Description: as §1
(§2) In the following Examples, the promotion of ketone body production was evaluated as follows. Specifically, blood was collected from the caudal vein of rats under fasting to measure the blood concentration (mmol/L) of β-hydroxybutyric acid (bHB) as an index of the ketone body in the blood. The measured value was defined as an initial value (0 hours). The rats were grouped into a control group and an experimental group, and fed with test samples. Thereafter, the transition of the blood bHB concentration until after 6 hours from the initial value was graphed. […] A value obtained by subtracting the measured value at the initial value (0 hours) from the measured value at the time of each measurement was calculated, and defined as an amount of change in blood β-hydroxybutyric acid concentration (ΔbHB concentration) (FIG. 1B). Then, for the amount of change in blood β-hydroxybutyric acid concentration (ΔbHB concentration), the maximum blood concentration (ΔCmax) and area under the blood concentration-curve (ΔAUC) until after 6 hours from the initial value (0 hours) were calculated (FIG. 1B). […]

[3] = tested on: ketone body production; assay: Effect of citrulline amount on ketone body production in feeding of medium-chain fatty acid oil and fat; details: rats, four-hour fasting; citrulline 1.5, 2.25 or 3.0 mmol/kg + MCT 4.5 g/kg oral constant; until 6 hours
Description: as §1, §2

Row | SMILES | % ΔAUC (%): % relative value of area under the blood concentration-curve ΔAUC of β-hydroxybutyric acid, control group = 100 [1] | % ΔCmax (%): % relative value of maximum blood concentration ΔCmax of β-hydroxybutyric acid, control group = 100 [1] | both % ΔCmax and % ΔAUC of β-hydroxybutyric acid compared with control group fed with water [1] | ketone body production compared with MCT fed alone (ΔbHB, ΔAUC, ΔCmax, FIGS. 2 to 7) [2] | amount of ketone bodies produced as a function of citrulline intake amount (% ΔAUC, % ΔCmax, FIGS. 8 and 9) [3]
1 | N[C@@H](CC(=O)O)C(=O)O [Aspartic acids (Asp), aspartic acid] | 107.5 ± 30.7% | 108.8 ± 23.6% | higher than those for the control group |  | 
2 | NC(=O)NCCC[C@H](N)C(=O)O [Citrulline (Cit), citrulline] | 105.4 ± 37.2% | 112.8 ± 25.5% | higher than those for the control group | the ketone body production was promoted | the amount of the ketone bodies produced varied according to the intake amount of citrulline (Cit)
3 | N[C@@H](CS)C(=O)O [Cysteine (Cys), cysteine] | 128.3 ± 22.2% | 151.9 ± 23.8% | higher than those for the control group |  | 
4 | NC(=O)CC[C@H](N)C(=O)O [Glutamine (Gln), glutamine] | 103.6 ± 30.7% | 121.2 ± 44.6% | higher than those for the control group |  | 
5 | CC(C)C[C@H](N)C(=O)O [Leucine (Leu), leucine] | 110.5 ± 21.1% | 130.1 ± 31.8% | higher than those for the control group | the ketone body production was promoted | 
6 | NCCS(=O)(=O)O [Taurine (Tau), taurine] | 103.6 ± 23.0% | 137.8 ± 21.8% | higher than those for the control group |  | 
